Measured values as given in US20250268880A1, “3-(Hydroxy)-Pyridin-4(1H)-One Compounds and Methods of Making and Using the Same” (Georgia Tech Research Corporation, priority 2018, published 2025).
Where two headings read alike, the source gives them in different places.

How the values were obtained:
KDM6A (UTX) [1] = biological target: T1, KDM6A (UTX) (Homo sapiens, UniProt O15550); conditions: for KDM6A (UTX) Inhibition (%) 1 (μM): compound at 1 μM; for KDM6A (UTX) Inhibition (%) 10 (μM): compound at 10 μM; for IC50 against KDM6A (in words): cell-free
T1 sequence (O15550 whole entry): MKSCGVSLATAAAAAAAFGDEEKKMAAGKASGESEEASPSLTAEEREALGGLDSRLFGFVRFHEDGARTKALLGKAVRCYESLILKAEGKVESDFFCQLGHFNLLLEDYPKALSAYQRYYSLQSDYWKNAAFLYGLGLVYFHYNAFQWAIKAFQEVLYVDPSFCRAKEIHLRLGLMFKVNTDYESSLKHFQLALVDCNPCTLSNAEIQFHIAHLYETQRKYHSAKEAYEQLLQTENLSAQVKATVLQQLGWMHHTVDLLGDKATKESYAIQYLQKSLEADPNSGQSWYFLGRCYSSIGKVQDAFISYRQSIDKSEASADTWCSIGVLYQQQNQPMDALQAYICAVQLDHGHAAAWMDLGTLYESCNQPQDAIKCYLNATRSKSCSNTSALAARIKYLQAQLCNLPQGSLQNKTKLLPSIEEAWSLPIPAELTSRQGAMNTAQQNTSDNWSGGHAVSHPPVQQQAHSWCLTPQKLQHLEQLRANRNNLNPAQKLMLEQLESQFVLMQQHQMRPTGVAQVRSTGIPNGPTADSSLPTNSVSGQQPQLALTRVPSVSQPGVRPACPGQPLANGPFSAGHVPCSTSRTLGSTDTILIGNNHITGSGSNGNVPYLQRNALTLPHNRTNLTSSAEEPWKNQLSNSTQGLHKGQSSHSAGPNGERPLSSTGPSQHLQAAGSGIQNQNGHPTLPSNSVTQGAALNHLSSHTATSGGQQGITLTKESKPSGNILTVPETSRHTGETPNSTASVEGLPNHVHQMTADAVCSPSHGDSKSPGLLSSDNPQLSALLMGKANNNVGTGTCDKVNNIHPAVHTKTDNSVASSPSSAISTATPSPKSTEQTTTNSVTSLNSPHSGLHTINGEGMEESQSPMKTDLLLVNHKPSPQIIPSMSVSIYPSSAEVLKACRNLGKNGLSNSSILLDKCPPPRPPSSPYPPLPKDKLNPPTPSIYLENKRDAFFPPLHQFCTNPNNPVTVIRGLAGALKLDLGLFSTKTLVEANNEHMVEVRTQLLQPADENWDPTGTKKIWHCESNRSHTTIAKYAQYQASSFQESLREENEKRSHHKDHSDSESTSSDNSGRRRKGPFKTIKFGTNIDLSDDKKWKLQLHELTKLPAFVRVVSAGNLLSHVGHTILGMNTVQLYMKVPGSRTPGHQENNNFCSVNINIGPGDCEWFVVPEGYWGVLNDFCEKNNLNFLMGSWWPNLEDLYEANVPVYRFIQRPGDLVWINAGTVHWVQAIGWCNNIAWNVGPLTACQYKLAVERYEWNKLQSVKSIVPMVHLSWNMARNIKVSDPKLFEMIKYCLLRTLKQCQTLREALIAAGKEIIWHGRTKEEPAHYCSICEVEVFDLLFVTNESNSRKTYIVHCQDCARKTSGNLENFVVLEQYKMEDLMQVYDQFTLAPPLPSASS

MDA-MB-231 (TNBC BCa) = assay: Cell viability assay (MTS), MDA-MB-231; format: cell-based; conditions: NI = no inhibition, read-out: Antiproliferative Activity IC50 (μM) MDA-MB-231
[2] = test system: HP1-mediated heterochromatin gene repression at the CiA:Oct4 locus; assay: HP1-recruitment assay (CiA:Oct4), % GFP (+) cells by flow cytometry; format: cell-based, mouse; conditions: 48 h, CIP-rapamycin HP1 recruitment
From the text: To elucidate the effect of DFP-based KDM inhibitors have on chromatin dynamics, we profiled them in an intracellular assay which measures heterochromatin formation speed. The chromatin assay (CiA) leverages chemical induced proximity (CTP) to recruit heterochromatin protein 1 (HP1) to a modified Oct4 locus. This reporter system inserts tandem arrays of Gal4 and zinc finger DNA binding domains in the promoter of one allele of Oct4, where the gene is replaced by a nuclear eGFP reporter. Protein fusions of Gal4-FKBP and FRRB—HP1 allow for direct chemical recruitment of HP1 to the CiA:Oct4 reporter locus upon addition of the chemical inducer of proximity (CIP)-rapamycin. After CIP-rapamycin addition, HIP1 is recruited to the reporter locus and brings histone methyltransferase enzymes to the chromatin reporter resulting in the repressive H3K9me3 mark being deposited. H3K9me3 deposition leads to heterochromatin formation and gene silencing (FIG. 7A). Others have shown that H3K4me3 marked nucleosomes impede H3K9 methyltransferases. Thus, we postulate that the active H3K4me3 mark mast be removed by KDM enzymes as part of the transformation from euchromatin to heterochromatin. Inhibition of KDMs, specifically those targeting H3K4me3, would result in a decrease in H3K9me3 accumulation, which would be measured in our assay as an increase in % GFP (+) cells.
To determine the effect of DFP-based KDM inhibitors on HP1-mediated gene repression, we treated CiA:Oct4 embryonic stem (ES) cells with doses of representative compounds ranging from […] for 48 h with and without CIP-rapamycin recruiting HP1 (FIG. 7B). […] Dose response curves of DFP derivatives abler 48 h with C) and without D) HP1 recruitment at 10000, 5000, 2500, 1000, 500, 250, and 0 nM concentrations. Flow cytometry was used to determine the % GFP (+) cells following treatment. n=6
The CiA:Oct4 recruitment system in mouse embryonic stem cells contains Gal4 and Zinc finger DNA binding arrays and a downstream nuclear eGFP gene in place of a single Oct4 allele as previously described. The CiA:Oct4 N118/N163 cell line containing viral integrations of N118 and N163 plasmids (N118-nLV EF-1α-Gal-FKBPx1-HA-PGK-Blast, N163-nLV EF-1α-HP1α (CS)-Frbx2(Frb+FrbWobb)-V5-PGK-Puro) was used for inhibition of HP1-mediated heterochromatin studies. All plasmids are freely available on addgene.
Day 0, CiA:Oct4 N118/163 cells were grown in ES media and seeded at a density of 10,000 cells per well (100.000 cells/ml) into gelatin coated 96 well plates. Day 1, culture media was aspirated and replaced with 100 μl ES media containing +/−6 nM rapamycin. 10 μM, 5 μM, 2.5 μM, 1 μM, 500 nM, and 250 nM concentrations of compound or DMSO were added using a TTP Labtech Mosquito HTS liquid handler. Days 2-4. fresh ES media+/−rapamycin and compound were added as in Day 1.
Day 3 and 5, cells were washed with PBS and trypsinized using 0.25% trypsin-EDTA. Trypsin was quenched with serum. Cells were resuspended by pipetting in preparation for flow cytometry analysis.
Flow cytometry data was acquired using the Intellicyt iQue Screener and analyzed with FlowJo software. Cell populations were gated based on forward and side scatter height. Single cell populations were gated using forward scatter area by forward scatter height. Autofluorescent cells were excluded and the remaining cells were gated into GFP (−) and GFP (+) populations based on DMSO control samples.

KDM6A (UTX) [3] = biological target: T1, KDM6A (UTX); assay: biochemical; conditions: for inhibition at 1 µM: read-out: KDM6A (UTX) Inhibition (%) 1 (μM); for inhibition at 10 µM: read-out: KDM6A (UTX) Inhibition (%) 10 (μM)

## Cc1c(O)c(=O)ccn1CCCCCn1ccc(=O)c(O)c1C [Compound 3b]
KDM6A (UTX) [1]
  KDM6A (UTX) Inhibition (%) 1 (μM): 1%
  KDM6A (UTX) Inhibition (%) 10 (μM): 99%

## Cc1c(O)c(=O)ccn1CCCCn1ccc(=O)c(O)c1C [Compound 3a]
KDM6A (UTX) [1]
  KDM6A (UTX) Inhibition (%) 1 (μM): 4%
  KDM6A (UTX) Inhibition (%) 10 (μM): 100%

## Cc1c(O)c(=O)ccn1CCCCCn1cc(-c2ccccc2F)nn1 [Compound 2m]
MDA-MB-231 (TNBC BCa); 72 h
  IC50: 18.3 µM
KDM6A (UTX) [1]
  KDM6A (UTX) Inhibition (%) 1 (μM): 16%
  KDM6A (UTX) Inhibition (%) 10 (μM): 100%

## Cc1c(O)c(=O)ccn1CCCCCCn1ccc(=O)c(O)c1C [Compound 3c]
KDM6A (UTX) [1]
  KDM6A (UTX) Inhibition (%) 1 (μM): 2%
  KDM6A (UTX) Inhibition (%) 10 (μM): 100%

## COc1ccc2cc(-c3cn(CCCCCCn4ccc(=O)c(O)c4C)nn3)ccc2c1 [Compound 2w, 3-Hydroxy-1-(6-(4-(6-methoxynaphthalen-2-yl)-1H-1,2,3-triazol-1-yl)hexyl)-2-methylpyridin-4(1H)-one]
[2]
  concentration at which maximum inhibition of heterochromatin formation / gene repression is reached: 1 µM
  inhibition of heterochromatin formation (in words): significantly inhibited

## Cc1c(O)c(=O)ccn1CCCCCn1cc(-c2cccc(F)c2)nn1 [Compound 2n, 1-(5-(4-(3-Fluorophenyl)-1H-1,2,3-triazol-1-yl)pentyl)-3-hydroxy-2-methylpyridin-4(1H)-one]
KDM6A (UTX) [3]
  inhibition at 1 µM: 5%
  inhibition at 10 µM: 100%

## COc1cccc(-c2cn(CCCCCn3ccc(=O)c(O)c3C)nn2)c1 [Compound 2j, 3-Hydroxy-1-(5-(4-(3-methoxyphenyl)-1H-1,2,3-triazol-1-yl)pentyl)-2-methylpyridin-4(1H)-one]
MDA-MB-231 (TNBC BCa); Homo sapiens, MDA-MB-231, 72 h
  IC50: 19.6 µM
[2]
  increase in GFP expression: 20%
  inhibition of heterochromatin formation (in words): significantly inhibited
KDM6A (UTX) [1]
  IC50 against KDM6A (in words): low micromolar
KDM6A (UTX) [3]
  inhibition at 1 µM: 8%
  inhibition at 10 µM: 100%

## COc1ccc(-c2cn(CCCCCn3ccc(=O)c(O)c3C)nn2)cc1 [Compound 2l, 3-Hydroxy-1-(5-(4-(4-methoxyphenyl)-1H-1,2,3-triazol-1-yl)pentyl)-2-methylpyridin-4(1H)-one]
KDM6A (UTX) [3]
  inhibition at 1 µM: 4%
  inhibition at 10 µM: 100%

## Cc1c(O)c(=O)ccn1CCCCCCn1cc(-c2ccc(-c3ccccc3)cc2)nn1 [Compound 2v, 1-(6-(4-([1,1-Biphenyl]-4-yl)-1H-1,2,3-triazol-1-yl)hexyl)-3-hydroxy-2-methylpyridin-4(1H)-one]
[2]
  concentration at which maximum inhibition of heterochromatin formation / gene repression is reached: 1 µM
  inhibition of heterochromatin formation (in words): significantly inhibited

## Cc1c(O)c(=O)ccn1CCCCCn1cc(-c2ccc(F)cc2)nn1 [Compound 2o, 1-(5-(4-(4-Fluorophenyl)-1H-1,2,3-triazol-1-yl)pentyl)-3-hydroxy-2-methylpyridin-4(1H)-one]
KDM6A (UTX) [3]
  inhibition at 1 µM: 10%
  inhibition at 10 µM: 100%

## Cc1c(O)c(=O)ccn1CCCCCn1cc(-c2ccc(-c3ccncc3)cc2)nn1 [Compound 2t, 3-Hydroxy-2-methyl-1-(5-(4-(4-(pyridin-4-yl)phenyl)-1H-1,2,3-triazol-1-yl)pentyl)pyridin-4(1H)-one]
[2]
  concentration at which maximum inhibition of heterochromatin formation / gene repression is reached: 10 µM
  inhibition of heterochromatin formation (in words): significantly inhibited
KDM6A (UTX) [3]
  inhibition at 1 µM: 8%
  inhibition at 10 µM: 99%

## Cc1c(O)c(=O)ccn1CCn1cc(-c2ccccc2)nn1 [Compound 1a]
[2]
  inhibition of heterochromatin formation (in words): weak inhibitors
KDM6A (UTX) [3]
  inhibition at 1 µM: 12%
  inhibition at 10 µM: 96%

## CC/C(=C(\c1ccccc1)c1ccc(OCCN(C)Cc2ccc(-c3cn(CCn4ccc(=O)c(O)c4C)nn3)cc2)cc1)c1ccccc1 [Compound 36a]
MDA-MB-231 (TNBC BCa); Homo sapiens, MDA-MB-231, 72 h
  IC50: 1.6 µM
KDM6A (UTX) [3]
  inhibition at 1 µM: 9%
  inhibition at 10 µM: 100%

## Cc1c(O)c(=O)ccn1CCCCCn1cc(-c2ccccn2)nn1 [Compound 2s, 3-Hydroxy-2-methyl-1-(5-(4-(pyridin-2-yl)-1H-1,2,3-triazol-1-yl)pentyl)pyridin-4(1H)-one]
KDM6A (UTX) [3]
  inhibition at 1 µM: 15%
  inhibition at 10 µM: 99%

## Cc1c(O)c(=O)ccn1CCCCCn1cc(-c2ccc(N(C)C)cc2)nn1 [Compound 2r, 1-(5-(4-(4-(Dimethylamino)phenyl)-1H-1,2,3-triazol-1-yl)pentyl)-3-hydroxy-2-methylpyridin-4(11)-one]
MDA-MB-231 (TNBC BCa); 72 h
  IC50: 12.5 µM

## Cc1c(O)c(=O)ccn1CCCCCCCn1ccc(=O)c(O)c1C [Compound 3d]
KDM6A (UTX) [1]
  KDM6A (UTX) Inhibition (%) 1 (μM): 3%
  KDM6A (UTX) Inhibition (%) 10 (μM): 100%

## Cc1c(O)c(=O)ccn1C1CCC(CC2CCC(n3ccc(=O)c(O)c3C)CC2)CC1 (stereo not drawn) [Compound 3g, 1,1′-(Methylenebis(cyclohexane-4,1-diyl))bis(3-hydroxy-2-methylpyridin-4(1H)-one)]
[2]
  concentration at which maximum inhibition of heterochromatin formation / gene repression is reached: 2.5 µM
  inhibition of heterochromatin formation (in words): significantly inhibited
KDM6A (UTX) [1]
  IC50 against KDM6A (in words): low micromolar
KDM6A (UTX) [3]
  inhibition at 1 µM: 9%
  inhibition at 10 µM: 100%

## Cc1c(O)c(=O)ccn1CCCCCn1cc(-c2ccccc2C(F)(F)F)nn1 [Compound 2p, 3-Hydroxy-2-methyl-1-(5-(4-(2-(trifluoromethyl)phenyl)-1H-1,2,3-triazol-1-yl)pentyl)pyridin-4(1H)-one]
KDM6A (UTX) [3]
  inhibition at 1 µM: 15%
  inhibition at 10 µM: 99%

## COc1ccccc1-c1cn(CCCCCn2ccc(=O)c(O)c2C)nn1 [Compound 2h, 3-Hydroxy-1-(5-(4-(2-methoxyphenyl)-1H-1,2,3-triazol-1-yl)pentyl)-2-methylpyridin-4(1H)-one]
KDM6A (UTX) [3]
  inhibition at 1 µM: 3%
  inhibition at 10 µM: 99%

## Cc1ccc(-c2cn(CCCCn3ccc(=O)c(O)c3C)nn2)cc1 [Compound 2e, 3-Hydroxy-2-methyl-1-(4-(4-(p-tolyl)-1H-1,2,3-triazol-1-yl)butyl)pyridin-4(1H)-one]
KDM6A (UTX) [3]
  inhibition at 1 µM: 13%
  inhibition at 10 µM: 100%

## COc1ccccc1-c1cn(CCCCn2ccc(=O)c(O)c2C)nn1 [Compound 2g, 3-Hydroxy-1-(4-(4-(2-methoxyphenyl)-1H-1,2,3-triazol-1-y)butyl)-2-methylpyridin-4(1H)-one]
MDA-MB-231 (TNBC BCa); 72 h
  IC50: 9.6 µM

## Cc1c(O)c(=O)ccn1Cc1ccc(Cn2ccc(=O)c(O)c2C)cc1 [Compound 3f, 1,1′-(1,4-Phenylenebis(methylene))bis(3-hydroxy-2-methylpyridin-4(1H)-one)]
KDM6A (UTX) [3]
  inhibition at 1 µM: 5%
  inhibition at 10 µM: 100%
